Values of other authors, collected in US11992479B2, “R-fadrozole for use in the treatment of aldostonerism” (priority 2018, dated 2024).
Counter-ions that a name gives are not always drawn.

What was measured:
basal plasma aldosterone = conditions: twice daily, healthy male subjects; cited from earlier work
plasma aldosterone = conditions: 0.5 and 1.0 mg twice a day, PA patients; cited from earlier work
DOC = conditions: PA patients, cited from earlier work
[1] = phase I study; cited from earlier work

SMILES | effect on basal plasma aldosterone levels (basal plasma aldosterone) | effect on serum potassium (basal plasma aldosterone) | decrease of plasma aldosterone (plasma aldosterone) | DOC mean level (DOC; 1.0 mg twice-daily dose) [ng/mL] | increase of DOC (DOC; twice-daily dosing) | elimination half-life [1] | time to peak concentration [1] [h]
N#Cc1ccc(C2CCCc3cncn32)cc1 (racemic) [Fadrozole hydrochloride] | only modestly affect basal plasma aldosterone levels | without significantly elevating serum potassium | – | – | – | – | –
N#Cc1ccc([C@H]2CCc3cncn32)c(F)c1 [LCI699] | – | – | 70-80% | 9.8 | over 700% | approximately 4 hours | 1
